Source: US9133206B2, “Benzodiazepine and pyridodiazepine derivatives” (AbbVie Inc., priority 2010, dated 2015)

Test system: SK-N-SH human neuroblastoma cells
Assay: Serum Deprivation/JC-1 Mitochondrial Membrane Potential (MMP) Assay
Type: cell-based
Conditions: for activation at 3 µM: single dose 3 μM, JC-1 ratio normalized to peak value for 10 μM dimebolin (n=2-4), read-out: JC-1 max % (@ 3 μM); for EC50: serum deprivation ~18 hours, JC-1 ratio normalized to peak value for 10 μM dimebolin, single curve fit to mean data of n=2-3; for Emax: read-out: JC-1 max %
How it was run: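 SK-N-SH cells serum-deprived ~18 h with compound, then stained with JC-1 for 40 min at 37 °C; red (560/595 nm) to green (485/535 nm) ratio reports membrane potential. Response normalized to peak from 10 μM dimebolin; EC50 from fit to mean of n=2–3, or single-dose 3 μM; DMSO ≤1%.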

[1] = Homo sapiens, serum deprivation
[2] = Homo sapiens, SK-N-SH, percent maximal intensity in JC-1 ratio normalized to peak value for 10 μM dimebolin, serum deprivation

SMILES	activation at 3 µM [1] [%]	EC50 (Homo sapiens, SK-N-SH, 18 h) [µM]	Emax [2] [%]	other results
CCC(=O)N1Cc2ccccc2N2CCN(Cc3ccccc3)CC2C1 (centres unmarked) [Example 106, 1-(3-benzyl-1,2,3,4,4a,5-hexahydropyrazino[1,2-a][1,4]benzodiazepin-6(7H)-yl)propan-1-one]	81	–	–	–
O=C(c1ccncc1)N1Cc2ccccc2N2CCN(Cc3ccccc3)CC2C1 (centres unmarked) [Example 107, (3-benzyl-1,2,3,4,4a,5-hexahydropyrazino[1,2-a][1,4]benzodiazepin-6(7H)-yl)(pyridin-4-yl)methanone]	–	5.66	192	–
CCCC(=O)N1Cc2ccccc2N2CCN(Cc3ccccc3)CC2C1 (centres unmarked) [Example 108, 1-(3-benzyl-1,2,3,4,4a,5-hexahydropyrazino[1,2-a][1,4]benzodiazepin-6(7H)-yl)butan-1-one]	–	3.12	162	–
O=C(C1CCOC1)N1Cc2ccccc2N2CCN(Cc3ccccc3)CC2C1 (centres unmarked) [Example 109, (3-benzyl-1,2,3,4,4a,5-hexahydropyrazino[1,2-a][1,4]benzodiazepin-6(7H)-yl)(tetrahydrofuran-3-yl)methanone]	65	–	–	–
O=C(c1cccnc1)N1Cc2ccccc2N2CCN(Cc3ccccc3)CC2C1 (centres unmarked) [Example 110, (3-benzyl-1,2,3,4,4a,5-hexahydropyrazino[1,2-a][1,4]benzodiazepin-6(7H)-yl)(pyridin-3-yl)methanone]	97	–	–	–
O=C(CCN1CCCCC1)N1Cc2ccccc2N2CCN(Cc3ccccc3)CC2C1 (centres unmarked) [Example 111, 1-(3-benzyl-1,2,3,4,4a,5-hexahydropyrazino[1,2-a][1,4]benzodiazepin-6(7H)-yl)-3-(piperidin-1-yl)propan-1-one]	162	–	–	–
O=C(C1CC1)N1Cc2ccccc2N2CCN(Cc3ccccc3)CC2C1 (centres unmarked) [Example 112, (3-benzyl-1,2,3,4,4a,5-hexahydropyrazino[1,2-a][1,4]benzodiazepin-6(7H)-yl)(cyclopropyl)methanone]	–	4.67	139	–
CCOCC(=O)N1Cc2ccccc2N2CCN(Cc3ccccc3)CC2C1 (centres unmarked) [Example 113, 1-(3-benzyl-1,2,3,4,4a,5-hexahydropyrazino[1,2-a][1,4]benzodiazepin-6(7H)-yl)-2-ethoxyethanone]	51	–	–	–
CC1(C(=O)N2Cc3ccccc3N3CCN(Cc4ccccc4)CC3C2)CC1 (centres unmarked) [Example 114, (3-benzyl-1,2,3,4,4a,5-hexahydropyrazino[1,2-a][1,4]benzodiazepin-6(7H)-yl)(1-methylcyclopropyl)methanone]	–	4.36	201	–
O=C(C1CCC1)N1Cc2ccccc2N2CCN(Cc3ccccc3)CC2C1 (centres unmarked) [Example 115, (3-benzyl-1,2,3,4,4a,5-hexahydropyrazino[1,2-a][1,4]benzodiazepin-6(7H)-yl)(cyclobutyl)methanone]	–	1.25	177	–
CC1CC1C(=O)N1Cc2ccccc2N2CCN(Cc3ccccc3)CC2C1 (centres unmarked) [Example 116, (3-benzyl-1,2,3,4,4a,5-hexahydropyrazino[1,2-a][1,4]benzodiazepin-6(7H)-yl)(2-methylcyclopropyl)methanone]	198	–	–	–
O=C(CC(F)(F)F)N1Cc2ccccc2N2CCN(Cc3ccccc3)CC2C1 (centres unmarked) [Example 117, 1-(3-benzyl-1,2,3,4,4a,5-hexahydropyrazino[1,2-a][1,4]benzodiazepin-6(7H)-yl)-3,3,3-trifluoropropan-1-one]	70	–	–	–
O=C(C1CCCO1)N1Cc2ccccc2N2CCN(Cc3ccccc3)CC2C1 (centres unmarked) [Example 118, (3-benzyl-1,2,3,4,4a,5-hexahydropyrazino[1,2-a][1,4]benzodiazepin-6(7H)-yl)(tetrahydrofuran-2-yl)methanone]	84	–	–	–
COc1ccc(CN2Cc3ccccc3N3CCN(Cc4ccccc4)CC3C2)cc1C (centres unmarked) [Example 119, 3-benzyl-6-(4-methoxy-3-methylbenzyl)-1,2,3,4,4a,5,6,7-octahydropyrazino[1,2-a][1,4]benzodiazepine]	–	3.95	172	–
Cc1cc(CN2Cc3ccccc3N3CCN(Cc4ccccc4)CC3C2)oc1C (centres unmarked) [Example 120, 3-benzyl-6-[(4,5-dimethyl-2-furyl)methyl]-1,2,3,4,4a,5,6,7-octahydropyrazino[1,2-a][1,4]benzodiazepine]	-5	–	–	–
CCOc1ccc(CN2Cc3ccccc3N3CCN(Cc4ccccc4)CC3C2)cc1 (centres unmarked) [Example 121, 3-benzyl-6-(4-ethoxybenzyl)-1,2,3,4,4a,5,6,7-octahydropyrazino[1,2-a][1,4]benzodiazepine]	–	4.21	167	–
Cc1ccc(CN2Cc3ccccc3N3CCN(Cc4ccccc4)CC3C2)s1 (centres unmarked) [Example 122, 3-benzyl-6-[(5-methyl-2-thienyl)methyl]-1,2,3,4,4a,5,6,7-octahydropyrazino[1,2-a][1,4]benzodiazepine]	–	3.4	133	–
Brc1ccc(CN2Cc3ccccc3N3CCN(Cc4ccccc4)CC3C2)cc1 (centres unmarked) [Example 123, 3-benzyl-6-(4-bromobenzyl)-1,2,3,4,4a,5,6,7-octahydropyrazino[1,2-a][1,4]benzodiazepine]	–	–	–	JC-1 max % (percent maximal intensity in JC-1 ratio normalized to peak value for 10 μM dimebolin, serum deprivation): 186%; EC50: 3.44 µM

SMILES	activation at 3 µM [1] [%]	EC50 (Homo sapiens, SK-N-SH, 18 h) [µM]	Emax [2] [%]	other results
c1ccc(CN2CCN3c4ccccc4CN(Cc4ccc5ccccc5c4)CC3C2)cc1 (centres unmarked) [Example 124, 3-benzyl-6-(2-naphthylmethyl)-1,2,3,4,4a,5,6,7-octahydropyrazino[1,2-a][1,4]benzodiazepine]	–	3.49	193	–
c1ccc(CN2CCN3c4ccccc4CN(CC4CCCC4)CC3C2)cc1 (centres unmarked) [Example 125, 3-benzyl-6-(cyclopentylmethyl)-1,2,3,4,4a,5,6,7-octahydropyrazino[1,2-a][1,4]benzodiazepine]	–	4.26	98	–
c1ccc(CN2CCN3c4ccccc4CN(Cc4ccc5ccccc5n4)CC3C2)cc1 (centres unmarked) [Example 126, 3-benzyl-6-(quinolin-2-ylmethyl)-1,2,3,4,4a,5,6,7-octahydropyrazino[1,2-a][1,4]benzodiazepine]	–	1.89	150	–
CCc1ccc(CN2Cc3ccccc3N3CCN(Cc4ccccc4)CC3C2)o1 (centres unmarked) [Example 127, 3-benzyl-6-[(5-ethyl-2-furyl)methyl]-1,2,3,4,4a,5,6,7-octahydropyrazino[1,2-a][1,4]benzodiazepine]	26	–	–	–
N#Cc1ccc(CN2Cc3ccccc3N3CCN(Cc4ccccc4)CC3C2)cc1 (centres unmarked) [Example 128, 4-[(3-benzyl-1,2,3,4,4a,5-hexahydropyrazino[1,2-a][1,4]benzodiazepin-6(7H)-yl)methyl]benzonitrile]	–	4.25	168	–
CCCCN1Cc2ccccc2N2CCN(Cc3ccccc3)CC2C1 (centres unmarked) [Example 129, 3-benzyl-6-butyl-1,2,3,4,4a,5,6,7-octahydropyrazino[1,2-a][1,4]benzodiazepine]	40	–	–	–
Clc1ccc(CN2Cc3ccccc3N3CCN(Cc4ccccc4)CC3C2)cc1 (centres unmarked) [Example 130, 3-benzyl-6-(4-chlorobenzyl)-1,2,3,4,4a,5,6,7-octahydropyrazino[1,2-a][1,4]benzodiazepine]	–	4	181	–
Cc1ccccc1CN1Cc2ccccc2N2CCN(Cc3ccccc3)CC2C1 (centres unmarked) [Example 131, 3-benzyl-6-(2-methylbenzyl)-1,2,3,4,4a,5,6,7-octahydropyrazino[1,2-a][1,4]benzodiazepine]	–	3.22	144	–
Brc1ccccc1CN1Cc2ccccc2N2CCN(Cc3ccccc3)CC2C1 (centres unmarked) [Example 132, 3-benzyl-6-(2-bromobenzyl)-1,2,3,4,4a,5,6,7-octahydropyrazino[1,2-a][1,4]benzodiazepine]	–	3.33	192	–
COc1ccccc1CN1Cc2ccccc2N2CCN(Cc3ccccc3)CC2C1 (centres unmarked) [Example 133, 3-benzyl-6-(2-methoxybenzyl)-1,2,3,4,4a,5,6,7-octahydropyrazino[1,2-a][1,4]benzodiazepine]	–	3.64	163	–
COc1ccc(CN2Cc3ccccc3N3CCN(Cc4ccccc4)CC3C2)cc1 (centres unmarked) [Example 134, 3-benzyl-6-(4-methoxybenzyl)-1,2,3,4,4a,5,6,7-octahydropyrazino[1,2-a][1,4]benzodiazepine]	–	3.53	163	–
COc1cccc(CN2Cc3ccccc3N3CCN(Cc4ccccc4)CC3C2)c1 (centres unmarked) [Example 135, 3-benzyl-6-(3-methoxybenzyl)-1,2,3,4,4a,5,6,7-octahydropyrazino[1,2-a][1,4]benzodiazepine]	–	4.19	154	–
Brc1cccc(CN2Cc3ccccc3N3CCN(Cc4ccccc4)CC3C2)c1 (centres unmarked) [Example 136, 3-benzyl-6-(3-bromobenzyl)-1,2,3,4,4a,5,6,7-octahydropyrazino[1,2-a][1,4]benzodiazepine]	–	2.2	172	–
Cc1ccc(CN2Cc3ccccc3N3CCN(Cc4ccccc4)CC3C2)cc1 (centres unmarked) [Example 137, 3-benzyl-6-(4-methylbenzyl)-1,2,3,4,4a,5,6,7-octahydropyrazino[1,2-a][1,4]benzodiazepine]	–	3.3	143	–
c1ccc(CN2CCN3c4ccccc4CN(Cc4cccc5ccccc45)CC3C2)cc1 (centres unmarked) [Example 138, 3-benzyl-6-(1-naphthylmethyl)-1,2,3,4,4a,5,6,7-octahydropyrazino[1,2-a][1,4]benzodiazepine]	–	1.83	203	–
Clc1ccccc1CN1Cc2ccccc2N2CCN(Cc3ccccc3)CC2C1 (centres unmarked) [Example 139, 3-benzyl-6-(2-chlorobenzyl)-1,2,3,4,4a,5,6,7-octahydropyrazino[1,2-a][1,4]benzodiazepine]	–	3.18	145	–
Clc1cccc(CN2Cc3ccccc3N3CCN(Cc4ccccc4)CC3C2)c1 (centres unmarked) [Example 140, 3-benzyl-6-(3-chlorobenzyl)-1,2,3,4,4a,5,6,7-octahydropyrazino[1,2-a][1,4]benzodiazepine]	–	3.6	189	–
